Reference: US6511827B1 (Merck & Co., Inc., priority 1997, dated 2003)

How the values were obtained:
galanin receptors = conditions: hypothalamus, ventral hippocampus, basal forebrain, spinal cord, pancreas and pituitary; cited from earlier work
human GALR3 = experiment: Specific binding of ^125I-galanin radioligands to membranes of COS-7 cells transfected with GALR3 clones, as a function of membrane protein
Protocol: Mammalian COS-7 cells were transfected by electroporation. COS-7 cells (1×10^7) were suspended in 0.85 ml of Ringers' buffer and […] of the GALR3-2 or GALR3—3 expression plasmid was added to a 0.4 mm electroporation cuvette (Bio-Rad, Hercules, Calif.). Current was applied ([…], 260 V) using a Bio-Rad Electroporator device and the cells were transferred to a T-180 flask (Corning). Expression was allowed to proceed for 72 hrs.
Membranes were prepared from transfected cells following dissociation in enzyme-free dissociation solution (Specialty Media, Lavallette, N.J.) by disruption in a Dounce homogenizer in ice-cold membrane buffer (10 mM Tris, pH 7.4, 10 mM PMSF, […], and […]). After a low speed (1100×g for 10 min. at 4° C.) and a high speed centrifugation (38,700×g for 15 min. at 4° C.), membranes were resuspended in buffer and protein concentration determined (Bio-Rad assay kit). […] Reactions were initiated by the addition of membranes and the incubation was allowed to proceed at room temperature for 1 hour. […] Titration of membrane protein from 1 to 50 μg was conducted. […] Incubations were terminated by rapid filtration through GF/C filters which had been presoaked with 0.1% polyethylamine using a TOMTEC (Orange, Conn.) cell harvester. The results were analyzed using the Prism software package (GraphPad, San Diego, Calif.).

Question: Which Kd (galanin receptors) does the source give for ^125I-galanin here?
Answer: ~1 nM

Question: With ^125I-human galanin as the substance, how does the “Specific binding of radioligand” value (human GALR3; Clone GALR3-3, membrane protein 5 μg) read?
Answer: 211 cpm

Question: And the “Specific binding of radioligand” value (human GALR3; Clone GALR3-3, membrane protein 10 μg)?
Answer: 407 cpm

Question: And the “Specific binding of radioligand” value (human GALR3; Clone GALR3-3, membrane protein 20 μg)?
Answer: 886 cpm

Question: What about the “Specific binding of radioligand” value (human GALR3; Clone GALR3-3, membrane protein 50 μg) of the same substance?
Answer: 2061 cpm
